Consider 28 compounds from patent US10940139B2, “Compounds that interact with the Ras superfamily for the treatment of cancers, inflammatory diseases, rasopathies, and fibrotic disease” (Shy Therapeutics LLC, priority 2017, dated 2021).

Some results are limits rather than exact numbers.

For assay [1], the system named is MIA-PACA2 pancreatic cancer cell lines. The experiment in a line: Cell proliferation assay (CellTiter 96 AQueous One). In kind it is cell-based. To be noted: Homo sapiens, MIA PaCa-2; for IC50: MIA-PACA2, compound tested under both conditions, which assay gave the IC50 is not stated; for inhibition at 30 µM: MIA-PACA2.
For assay [2] the test system is unchanged. The experiment in a line: Cell proliferation assay, alternate assay conditions (DAPI fluorescence). In kind it is cell-based. To be noted: Homo sapiens, MIA PaCa-2; for inhibition at 10 µM: * = tested at 10 μM, alternate conditions, MIA-PACA2; for IC50: MIA-PACA2, same assay as the % inhibition (alternate conditions). The procedure: Cell lines: Tumor-derived pancreatic cancer cell lines MIA-PACA2 were purchased from ATCC and grown in complete DMEM-High Glucose medium supplemented with penicillin (100 U/mL), streptomycin (100 μg/mL), and 10% heat-inactivated FBS at 37° C. in a humidified incubator with 5% CO2.
Method: Cells are plated at 4000 cells/well density in 96-wells plate. The next day tested small molecules are added to the cells in the final concentration of 10 μM in the presence of 0.3% DMSO and 10% FBS. After small molecules addition, cells are incubated for 4 days at 37° C. in a humidified incubator with 5% CO2. For IC50 value determination, serial dilutions of compounds were added to cells under the same conditions.
Assay: At the end of the incubation period, cell cultures are fixed with a 50-50 mixture (v/v) acetone-methanol for 10 minutes at −20° C., followed by rehydration in PBS for 10 minutes at room temperature. After rehydration, cells are stained with DAPI (1 μg/ml) in PBS for 10 minutes at room temperature, followed by 3 washes with PBS. After staining, DAPI fluorescence is recorded (358 nm excitation/461 nm emission) with the 96-well plate reader Molecular Devices Spectramax M3; degree of small mole-cule-dependent proliferation inhibition is calculated from raw data assuming No Serum cells value as 100%.

In assay [3] the target is GTP binding domain of Ras. To be noted: literature, kinetic and filter binding measurements with radiolabeled GDP and GTP; cited from earlier work.
For assay [4], the target named is T1, K-Ras (G12C) (Homo sapiens (Human), UniProt P01116, G12C). The experiment in a line: MicroScale Thermophoresis (MST), GTP affinity for binding domain. The source says:
(§1) For the first time, the affinity of GTP for the GTP binding domain of K-Ras utilizing a Scintillation Proximity Assay (SPA) and MicroScale Thermophoresis (MST) has been measured and disclosed herein. These methods were not available when Wittinghofer and colleagues undertook their studies.
(§2) This therefore led to the novel, unanticipated conclusion that compounds such as small molecules could be discovered that would bind to a Ras GTP binding domain and compete with the binding of GTP to Ras.
(§3) See Khawaja et al., “Scintillation proximity assay in lead discovery”, Expert Opin. Drug Discov., 2008 November; 3(11):1267-80 regarding SPA procedures. See the following references regarding MST technology: Wienken et al., Nature Communications (2010), Protein binding assays in biological liquids using MicroScale Thermophoresis; Jerabek-Willemsen et al., ASSAY and Drug Development Technologies (2011), Molecular interaction studies using MicroScale Thermophoresis; Lin et al., Cell (2012), Inhibition of basal FGF receptor signaling by dimeric Grb2; Seidel et al., Angewandte Chemie (2012), Label-Free MicroScale Thermophoresis discriminates sites and affinity of protein-ligand binding; Seidel et al., Methods (2012), MicroScale Thermophoresis quantifies biomolecular interactions under previously challenging conditions; Parker & Newstead, Nature (2014), Molecular basis of nitrate uptake by the plant nitrate transporter NRT1.1; and Jerabek-Willemsen et al., Journal of Molecular Structure (2014), MicroScale Thermophoresis: Interaction analysis and beyond.
Background: Microscale thermophoresis detects binding through changes in fluorescence in a small temperature gradient.

The target in assay [5] is T2, K-Ras (G12D) (Homo sapiens (Human), UniProt P01116, G12D). The assay is described as above.
T2 sequence (P01116-2 other isoform, or with tags, fused parts or gaps G12D): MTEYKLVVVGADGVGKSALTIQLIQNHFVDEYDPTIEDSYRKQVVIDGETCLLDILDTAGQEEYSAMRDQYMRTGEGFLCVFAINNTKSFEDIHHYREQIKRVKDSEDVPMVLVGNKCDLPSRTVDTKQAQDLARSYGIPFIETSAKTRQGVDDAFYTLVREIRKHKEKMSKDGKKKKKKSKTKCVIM
Text: as §1, §2, §3

In assay [6] the target is T3, K-Ras (Q61H) (Homo sapiens (Human), UniProt P01116, Q61H). The assay is described as above.
T3 sequence (P01116-2 other isoform, or with tags, fused parts or gaps Q61H): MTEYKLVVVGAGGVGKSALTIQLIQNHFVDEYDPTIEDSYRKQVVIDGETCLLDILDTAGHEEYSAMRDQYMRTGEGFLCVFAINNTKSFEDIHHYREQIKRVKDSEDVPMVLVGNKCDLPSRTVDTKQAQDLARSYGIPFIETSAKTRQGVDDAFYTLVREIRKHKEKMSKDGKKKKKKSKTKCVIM
Text: as §1, §2, §3

The target in assay [7] is T4, K-Ras (Q61H/G12C) (Homo sapiens (Human), UniProt P01116, G12C/Q61H). The assay is described as above.
T4 sequence (P01116-2 other isoform, or with tags, fused parts or gaps G12C/Q61H): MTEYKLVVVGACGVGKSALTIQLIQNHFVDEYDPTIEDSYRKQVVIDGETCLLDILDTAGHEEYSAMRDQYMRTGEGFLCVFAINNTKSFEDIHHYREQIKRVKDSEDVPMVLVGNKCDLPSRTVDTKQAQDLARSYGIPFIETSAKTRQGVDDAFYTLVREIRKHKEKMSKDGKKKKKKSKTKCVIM
Text: as §1, §2, §3

Assay [8] deals with T5, K-Ras (Q61H/G12D) (Homo sapiens (Human), UniProt P01116, G12D/Q61H). The assay is described as above.
T5 sequence (P01116-2 other isoform, or with tags, fused parts or gaps G12D/Q61H): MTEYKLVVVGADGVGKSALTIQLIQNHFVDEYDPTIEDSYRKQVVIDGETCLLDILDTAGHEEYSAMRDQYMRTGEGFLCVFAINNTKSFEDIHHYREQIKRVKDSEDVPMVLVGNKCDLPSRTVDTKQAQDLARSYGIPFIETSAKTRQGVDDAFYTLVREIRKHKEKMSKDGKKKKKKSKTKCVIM
Text: as §1, §2, §3

For assay [9], the target named is T6, KRas wild type (Homo sapiens (Human), UniProt P01116). The description is as above.
T6 sequence (P01116-2 other isoform, or with tags, fused parts or gaps): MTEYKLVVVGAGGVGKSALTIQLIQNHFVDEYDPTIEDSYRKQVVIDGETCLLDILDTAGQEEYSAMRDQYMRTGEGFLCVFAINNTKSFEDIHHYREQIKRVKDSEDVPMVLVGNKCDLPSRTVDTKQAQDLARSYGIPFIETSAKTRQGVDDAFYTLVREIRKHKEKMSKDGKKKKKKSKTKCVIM
Text: as §1, §2, §3

For assay [10], the target named is T7, Rac-1 (Homo sapiens (Human), UniProt P63000). Described as above.
For assay [11], the target named is T8, Rho-A (Homo sapiens (Human), UniProt P61586). The assay is described as above.
T8 sequence (P61586 whole entry, the tested form may be a part): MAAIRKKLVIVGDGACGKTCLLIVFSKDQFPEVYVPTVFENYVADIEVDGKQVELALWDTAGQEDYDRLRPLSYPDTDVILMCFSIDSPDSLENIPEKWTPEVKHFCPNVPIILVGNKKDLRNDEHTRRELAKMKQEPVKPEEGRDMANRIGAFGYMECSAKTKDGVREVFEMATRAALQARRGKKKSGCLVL
The target of assay [12] is T1, K-Ras (G12C). The experiment in a line: Scintillation Proximity Assay (SPA), GTP affinity for binding domain.
Text: as §1, §2, §3

The target of assay [13] is T2, K-Ras (G12D). The assay is described as above.
Text: as §1, §2, §3

The target of assay [14] is T3, K-Ras (Q61H). Described as above.
Text: as §1, §2, §3

Assay [15] addresses T4, K-Ras (Q61H/G12C). The description is as above.
Text: as §1, §2, §3

In assay [16] the target is T5, K-Ras (Q61H/G12D). The assay is described as above.
Text: as §1, §2, §3

Assay [17] deals with T6, KRas wild type. The assay is described as above.
Text: as §1, §2, §3

The target of assay [18] is T7, Rac-1. The assay is described as above.
Assay [19] addresses T8, Rho-A. The description is as above.
For assay [20], the target named is K-Ras GTP binding domain across wild type and mutant K-Ras. The experiment in a line: SPA and MST studies, summary range across K-Ras forms. To be noted: read-out: affinity of GTP for the K-Ras GTP binding domain.
Text: For the first time, the affinity of GTP for the GTP binding domain of K-Ras utilizing a Scintillation Proximity Assay (SPA) and MicroScale Thermophoresis (MST) has been measured and disclosed herein. These methods were not available when Wittinghofer and colleagues (referenced above) undertook their studies.
as §2, §1
See Khawaja et al., “Scintillation proximity assay in lead discovery”, Expert Opin. Drug Discov., 2008 November; 3(11):1267-80 regarding SPA procedures. […]

Assay [21] deals with Rac-1 and Rho-A members of the Rho subfamily. The experiment in a line: SPA and MST studies, summary range for Rho subfamily members. To be noted: read-out: affinity of GTP for the binding domain of Rho subfamily members.
Text: as §2, §3

T1 sequence (P01116-2 other isoform, or with tags, fused parts or gaps G12C): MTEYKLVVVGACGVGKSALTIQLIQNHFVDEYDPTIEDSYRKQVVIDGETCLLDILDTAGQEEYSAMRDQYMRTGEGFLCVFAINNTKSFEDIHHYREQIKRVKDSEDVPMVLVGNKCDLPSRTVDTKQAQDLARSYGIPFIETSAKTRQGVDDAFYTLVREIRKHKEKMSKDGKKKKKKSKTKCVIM

The term IC50 denotes the point on the concentration scale where inhibition reaches its midpoint. Lower therefore signals greater potency in that assay. In general, inhibition refers to how much of the control response was suppressed. Read a low inhibition as little suppression. In assay [1], `Oc1nc(-c2ccccn2)nc2c(-c3ccccn3)csc12` [drawing 1772] displayed an IC50 of over 1000 nM and an inhibition at 30 µM of 76 to 100%. For the same compound, the inhibition at 10 µM in [2] lay in the range of 76 to 100%.
In assay [1], `CC(C)COc1ccc(-c2csc3c(O)nc(-c4ccccn4)nc23)cn1` [drawing 1753] gave an IC50 of 501 to 1000 nM and an inhibition at 30 µM of 76 to 100%. In addition, the inhibition at 10 µM in assay [2] was 76 to 100%.
As for `Nc1nc2c(ncn2[C@@H]2O[C@H](COP(=O)(O)OP(=O)(O)O)[C@@H](O)[C@H]2O)c(=O)[nH]1` [GDP], in assay [3], the “affinity for the GTP binding domain of Ras” value is reported as “single to double digit picomolar”.
In the case of `Oc1nc(-c2ccccn2)nc2c(-c3cccc(C(F)(F)F)c3)csc12` [drawing 1749], in assay [1], the IC50 lay in the range of 100 to 500 nM and the inhibition at 30 µM was in the range of 76 to 100%. The compound further yielded an inhibition at 10 µM in [2] of 76 to 100%.
For the compound `Nc1nc2c(ncn2[C@@H]2O[C@H](COP(=O)(O)OP(=O)(O)OP(=O)(O)O)[C@@H](O)[C@H]2O)c(=O)[nH]1` [GTP], the Kd turned out to be 207 ± 46 nM on K-Ras (G12C) [4]; 244 ± 12 nM at K-Ras (G12D) [5]; 157 ± 21 nM at K-Ras (Q61H) [6]; 266 ± 57 nM at K-Ras (Q61H/G12C) [7]; 268 ± 108 nM at K-Ras (Q61H/G12D) [8]; 463 ± 2 nM at KRas wild type [9]. Also, the Kd was 166 ± 10 nM at Rac-1 [10]; 130 ± 5 nM at Rho-A [11]; 258 ± 18 nM on K-Ras (G12C) [12]; 270 ± 15 nM at K-Ras (G12D) [13]; 118 ± 11 nM on K-Ras (Q61H) [14]; 104 ± 11 nM at K-Ras (Q61H/G12C) [15]. Also, the Kd was 135 ± 19 nM on K-Ras (Q61H/G12D) [16]; 243 ± 15 nM on KRas wild type [17]; 151 ± 14 nM at Rac-1 [18]; 129 ± 12 nM on Rho-A [19]; 100 to 465 nM in assay [20]; 120 to 170 nM in [21]. In addition, the “affinity for the GTP binding domain of Ras” value in assay [3] is “single to double digit picomolar”.
In assay [1], `COCc1ccc(-c2csc3c(O)nc(-c4ccccn4)nc23)cc1F` [drawing 1722] registered a concentration for half-maximal inhibition (IC50) of under 100 nM and an inhibition at 30 µM of 76 to 100%. Further, the inhibition at 10 µM in [2] is 76 to 100%.
`Cc1sc2c(O)nc(-c3nccn3C)nc2c1-c1ccc(OC(C)C)c(F)c1` [drawing 1912]: in assay [2], the inhibition at 10 µM was in the range of 76 to 100%.
In [2], `COCCN(C)c1nc(-c2nccn2C)nc2sc(-c3ccccc3)c(-c3ccccc3)c12` [drawing 1868] displayed an inhibition at 10 µM of 76 to 100% and a 50% inhibitory concentration (IC50) of over 1000 nM.
In assay [2], `Cn1ccnc1-c1nc(O)c2scc(-c3ccccc3Cl)c2n1` [drawing 1917] had an inhibition at 10 µM of 76 to 100%.
Same read-out and setting: to `Cn1cnc(-c2nc(O)c3c(-c4ccccc4)c(-c4ccncc4)sc3n2)c1` [drawing 1830] belongs 76 to 100%.
`Cn1ccnc1-c1nc(O)c2scc(-c3ccc(F)cc3F)c2n1` [drawing 1918] showed an inhibition at 10 µM in [2] of 76 to 100%.
In turn, `Oc1nc(-c2ccccn2)nc2c(C3CCCCC3)csc12` [drawing 1811] yielded an inhibition at 10 µM in [2] of 76 to 100%.
In the case of `Cc1sc2c(O)nc(-c3nccn3C)nc2c1-c1ccc(F)cc1F` [drawing 1923], the inhibition at 10 µM in assay [2] lay within 76 to 100%.
As for `COCCNc1nc(-c2nccn2C)nc2sc(-c3ccncc3)c(-c3ccccc3)c12` [drawing 1884], the inhibition at 10 µM in [2] is 76 to 100%.
Still for that read-out and setting: under `CC(C)Oc1ccc(-c2csc3c(O)nc(-c4nccn4C)nc23)cc1F` [drawing 1911] stands 76 to 100%; under `COc1cnc(-c2cnc[nH]2)nc1O` [drawing 1818], 0%; under `Cn1ccnc1-c1nc(O)c2scc(-c3cccc(Cl)c3)c2n1` [drawing 1919], 76 to 100%.
The same measure, in the same setting: to `COCCNc1nc(-c2cn(C)cn2)nc2sc(-c3ccncc3)c(-c3ccccc3)c12` [drawing 1832] belongs 76 to 100%; to `Cc1sc2c(O)nc(-c3ccccn3)nc2c1-c1ccccc1Cl` [drawing 1817], 76 to 100%.
`COc1cnc(-c2cn(C)cn2)nc1O` [drawing 1814]: the inhibition at 10 µM in assay [2] was in the range of 1 to 25%.
In assay [2], `Cc1sc2c(O)nc(-c3nccn3C)nc2c1-c1ccccc1` [drawing 1896] registered an inhibition at 10 µM of 76 to 100%.
With `Cn1ccnc1-c1nc(O)c2scc(-c3cccc(C(F)(F)F)c3)c2n1` [drawing 1900], in [2], the inhibition at 10 µM was 76 to 100% and the IC50 was over 1000 nM.
In the case of `Cn1ccnc1-c1nc(NCCCO)c2c(-c3ccccc3)c(-c3ccccc3)sc2n1` [drawing 1881], the inhibition at 10 µM in assay [2] is 76 to 100%.
In the case of `CC(C)COc1ccc(-c2c(-c3ccccc3)sc3c(O)nc(-c4nccn4C)nc23)cn1` [drawing 1889], in [2], the inhibition at 10 µM was in the range of 76 to 100% and the half-inhibitory concentration (IC50) fell in the range of 100 to 500 nM.
`COc1cnc(CNC(=O)c2c(C)sc3c(O)nc(-c4ccccn4)nc23)[nH]c1=O` [drawing 1825]: in [2], the inhibition at 10 µM came out at 0%.
With `CC(C)COc1ccc(-c2csc3c(O)nc(-c4cn(C)cn4)nc23)cn1` [drawing 1907], the inhibition at 10 µM in [2] was 76 to 100%.
For the compound `CC(C)Oc1ccc(-c2c(-c3ccccc3)sc3c(O)nc(-c4nccn4C)nc23)cc1F` [drawing 1913], in assay [2], the inhibition at 10 µM lay within 76 to 100%.
On the same count and under the same terms, under `Oc1nc(-c2ccccn2)nc2cc(-c3ccncc3)sc12` [drawing 1863] stands 76 to 100%.
